Like-named read-outs stand apart in the source and are kept apart here.
Experiments:
[1] = Stability in human K3-EDTA plasma under different test conditions; type: in vitro ADME
Description: Likewise, a wide range of long-term stability tests reflecting the sort of real-world storage issues that can occur in hospital-based clinical studies (e.g., short-term storage at -20°C before transfer to -80°C, availability of -60°C but not -80°C), was evaluated to ensure plasma samples are analyzed before degradation can occur. Therefore, the following plasma stability tests were performed: room temperature, freeze thaw (one cycle consisted of 2 hours at room temperature followed by freezing for at least 12 hours at -80°C ± 10°C) and long-term (at -20°C ± 5°C, -60°C ± 10°C and -80°C ± 10°C). For each stability test, two concentrations (LQC and HQC) and six replicates per level were analyzed. For acceptance criteria, the precision (%CV) was ≤15% and the bias when compared with the nominal concentration was ±15%. […]

[2] = Stability of stock and working solutions at -20°C; type: physicochemical; settings: -20°C ±5°C
Description: The stability of stock and working solutions, as well the stability of IS stock solution, following storage at -20°C ±5°C were investigated by concordance verification by comparing the stored solution against a freshly prepared one.

[3] = Plasma protein binding by rapid equilibrium dialysis (RED) in K3-EDTA plasma from donors; type: in vitro ADME, human; settings: human; for fraction unbound at 8 h, 100 ng/mL: RED 8 hours 37°C; for fraction unbound at 8 h, 100 ng/mL / fraction unbound at 8 h, 500 ng/mL: read-out: mean percent unbound
Excerpt: (§1) RED was considered the best alternative over other methods (e.g., ultrafiltration) to separate lurbinectedin unbound fraction (fu), due to high non-specific binding (NSB) of lurbinectedin leading to adsorption. The RED device consists of a cylinder of dialysis membrane with an 8-kDa molecular weight cut-off held in place by a polytetrafluoroethylene support; the dialysis membrane tube is closed at one end. The RED devices are disposable and used in a reusable polytetrafluoroethylene support plate (holds a maximum of 48 devices). The design of the plate and device allows for PBS to be added in such a way that it can circulate freely around the cylinder of dialysis membrane. In use, spiked plasma (400 μL) is added to the dialysis membrane cylinder part of the RED device, and PBS (600 μL) is added to the other side. The plate, device and volumes used result in a consistent fluid level across both sides of the membrane, preventing mass movement of fluid across the membrane due to hydrostatic pressure.
(§2) Each measurement was performed using three RED devices; the devices were placed in the plate and spiked plasma and PBS were added. The plate was then mixed on an incubating microplate shaker at 100 rpm and 37°C for 8 hours.
(§3) Both the plasma (diluted 1 in 20 with plasma:PBS 1:1, v:v) and PBS (diluted with plasma 1:1, v:v) were assayed in triplicate using the extraction and UPLC-MS/MS method described above. Transfer of the PBS from the incubation plate into an equivalent volume of plasma prior to assay was performed using pipette tips that had been pre-treated with Sigmacote®.
(§4) In vitro PPB experiments to determine lurbinectedin fu were conducted with RED in K3-EDTA plasma from donors. Fresh plasma (not previously frozen), previously frozen plasma (fresh plasma subjected to four cycles of freeze [at -80°C ±10°C for ≥12 hours] then thawed [at room temperature for 2 hours]) and diluted fresh plasma (not previously frozen, diluted 1:1 with PBS prior to incubation) were spiked to 100 ng/mL with lurbinectedin and then equilibrated with PBS in RED devices for 8 hours at 37°C and assayed.
(§5) In addition, the stability of lurbinectedin PPB in fresh plasma following storage at -80°C ±10°C was evaluated; aliquots of fresh plasma samples (not previously frozen) from three donors were spiked with 500 ng/mL of lurbinectedin. The samples were stored for at least 21, 30, 62 and 91 days prior to analysis; the day 0 aliquots were not frozen before analysis. The spiked aliquots from the three donors were equilibrated with PBS in RED devices in triplicate. The samples generated in the RED devices were analyzed in triplicate.

plasma protein = assay: as above; type: in vitro ADME, human; settings: for percent bound: 100 ng/mL, RED 8 hours 37°C
Excerpt: as §1, §2, §3, §4, §5

[4] = 4 freeze-thaw cycles, nom. conc. 0.3 ng/mL
[5] = 4 freeze-thaw cycles, nom. conc. 40 ng/mL
[6] = 37°C, 8 hours, nom. conc. 0.3 ng/mL
[7] = 37°C, 8 hours, nom. conc. 40 ng/mL
[8] = -20°C ±5°C, 23 days, nom. conc. 0.3 ng/mL
[9] = -20°C ±5°C, 23 days, nom. conc. 40 ng/mL
[10] = -60°C ±10°C, 245 days, nom. conc. 0.3 ng/mL
[11] = -60°C ±10°C, 245 days, nom. conc. 40 ng/mL
[12] = -80°C ±10°C, 853 days, nom. conc. 0.3 ng/mL
[13] = -80°C ±10°C, 853 days, nom. conc. 40 ng/mL
[14] = Ambient, 16.5 hours, nom. conc. 0.3 ng/mL
[15] = Ambient, 16.5 hours, nom. conc. 40 ng/mL

COc1ccc2[nH]c3c(c2c1)CCN[C@]31CS[C@@H]2c3c(OC(C)=O)c(C)c4c(c3[C@H](COC1=O)N1[C@@H]2[C@H]2c3c(cc(C)c(OC)c3O)C[C@@H]([C@@H]1O)N2C)OCO4 [Lurbinectedin]
Bias [1, 4]: -4%
Measured conc. [1, 4]: 0.289 ng/mL
Bias [1, 5]: -5%
Measured conc. [1, 5]: 38.0 ng/mL
Bias [1, 6]: -2%
Measured conc. [1, 6]: 0.293 ng/mL
Bias [1, 7]: 1%
Measured conc. [1, 7]: 40.2 ng/mL
Bias [1, 8]: -10%
Measured conc. [1, 8]: 0.271 ng/mL
Bias [1, 9]: -9%
Measured conc. [1, 9]: 36.2 ng/mL
Bias [1, 10]: -5%
Measured conc. [1, 10]: 0.285 ng/mL
Bias [1, 11]: -10%
Measured conc. [1, 11]: 36.1 ng/mL
Bias [1, 12]: -10%
Measured conc. [1, 12]: 0.269 ng/mL
Bias [1, 13]: -9%
Measured conc. [1, 13]: 36.3 ng/mL
Bias [1, 14]: -8%
Measured conc. [1, 14]: 0.276 ng/mL
Bias [1, 15]: 3%
Measured conc. [1, 15]: 41.0 ng/mL
stability of working solution following storage for 7 days ([2]; 5 ng/mL in DMSO:ammonium acetate 10 mM ~pH 3 (1:1, v:v)): not demonstrated
stability of stock solution in DMSO ([2]; 1 mg/mL in DMSO): ≥ 32 days
fraction unbound at 8 h, 100 ng/mL ([3]; fresh K3-EDTA plasma diluted 1:1 with PBS, diluted fresh plasma (1:1 with PBS)): 0.00668
fraction unbound at 8 h, 500 ng/mL ([3]; fresh K3-EDTA plasma from three donors (not frozen), fresh plasma from three donors, day 0 (not frozen)): 0.00151 to 0.00335
fraction unbound at 8 h ([3]; plasma, human plasma, RED (abstract)): 0.004
fraction unbound at 8 h, 100 ng/mL ([3]; previously frozen K3-EDTA plasma (four freeze-thaw cycles), previously frozen plasma (four freeze-thaw cycles)): 0.00443
fraction unbound at 8 h, 500 ng/mL ([3]; three donors, day 21 after storage at -80°C ±10°C): 0.00206 to 0.00319
fraction unbound at 8 h, 500 ng/mL ([3]; three donors, day 30 after storage at -80°C ±10°C): 0.00168 to 0.00266
fraction unbound at 8 h, 500 ng/mL ([3]; three donors, day 62 after storage at -80°C ±10°C): 0.00196 to 0.00286
fraction unbound at 8 h, 500 ng/mL ([3]; three donors, day 91 after storage at -80°C ±10°C): 0.00159 to 0.00213
percent bound (plasma protein; diluted fresh plasma (1:1 with PBS)): 99.3%
percent bound (plasma protein; fresh plasma (not previously frozen)): 99.6%
fraction unbound at 8 h, 500 ng/mL (plasma protein; human, K3-EDTA plasma (fresh, from three donors), following storage at -80°C ±10°C for ≥91 days, read-out: PPB): < 0.01
percent bound (plasma protein; previously frozen plasma (four freeze-thaw cycles)): 99.6%
stability of PPB in fresh plasma following storage (plasma protein; storage at -80°C ±10°C, three donors): ≥ 91 days
